Test results from ChEMBL document CHEMBL1201862, “PubChem BioAssay data set” (2004).
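Interpolation was linear, between the two tested concentrations surrounding the appropriate level; five concentrations were tested over 48 hours in 96-well plates. GI50: concentration for 50% inhibition of growth.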 Calls of active or inactive are those of the source. Cut-off read from the data, not from the text of the source: active = GI50 up to about 1.1 µM and inactive = higher.

Key:
Test in all cases: NCI-60 cell line screen, 48 h
DMS-114 = test system: DMS-114
HCT-15 = test system: HCT-15
M19-MEL = test system: M19-MEL
OVCAR-4 = test system: OVCAR-4
EKVX = test system: EKVX
SK-OV-3 = test system: SK-OV-3
SW-620 = test system: SW-620
IGROV-1 = test system: IGROV-1
SNB-78 = test system: SNB-78
SF-539 = test system: SF-539
DMS-273 = test system: DMS-273
SK-MEL-2 = test system: SK-MEL-2
U-251 = test system: U-251
XF498 = test system: XF498
HOP-62 = test system: HOP-62
SNB-75 = test system: SNB-75
MOLT-4 = test system: MOLT-4
HT-29 = test system: HT-29
HOP-92 = test system: HOP-92
NCI-H522 = test system: NCI-H522
OVCAR-3 = test system: OVCAR-3
KM-20L2 = test system: KM-20L2
M14 = test system: M14
RPMI-8226 = test system: RPMI-8226
UO-31 = test system: UO-31
SK-MEL-28 = test system: SK-MEL-28
LXFL 529 = test system: LXFL 529
DLD-1 = test system: DLD-1
A549 = test system: A549
SK-MEL-5 = test system: SK-MEL-5
NCI-H460 = test system: NCI-H460
A498 = test system: A498
ACHN = test system: ACHN
UACC-257 = test system: UACC-257
UACC-62 = test system: UACC-62
OVCAR-5 = test system: OVCAR-5
OVCAR-8 = test system: OVCAR-8
SN12C = test system: SN12C
SR = test system: SR
Malme-3M = test system: Malme-3M
SNB-19 = test system: SNB-19
LOX IMVI = test system: LOX IMVI
HOP-18 = test system: HOP-18
KM12 = test system: KM12
HCT-116 = test system: HCT-116
NCI-H23 = test system: NCI-H23
786-0 = test system: 786-0
K562 = test system: K562
SF-295 = test system: SF-295
RXF 393 = test system: RXF 393
SF-268 = test system: SF-268
COLO 205 = test system: COLO 205
HCC 2998 = test system: HCC 2998
NCI-H226 = test system: NCI-H226
TK-10 = test system: TK-10
HL-60 = test system: HL-60
CAKI-1 = test system: CAKI-1
CCRF-CEM = test system: CCRF-CEM

`O=c1[nH]c(S)nc2c1sc(=S)n2-c1ccccc1` was tested, and the GI50 (DMS-114) was > 100 µM (inactive), the GI50 (HCT-15) was over 100 µM and the GI50 (M19-MEL) was > 100 µM (inactive). For the same compound, the GI50 (OVCAR-4) was > 100 µM (inactive), the GI50 (EKVX) was > 100 µM (inactive) and the GI50 (SK-OV-3) was > 100 µM (inactive). For the same compound, the GI50 (SW-620) was > 100 µM (inactive), the GI50 (IGROV-1) was > 100 µM (inactive) and the GI50 (SNB-78) was > 100 µM (inactive). For the same compound, the GI50 (SF-539) was > 100 µM (inactive), the GI50 (DMS-273) was > 100 µM (inactive) and the GI50 (SK-MEL-2) was > 100 µM (inactive). For the same compound, the GI50 (U-251) was > 100 µM (inactive), the GI50 (XF498) was > 100 µM (inactive) and the GI50 (HOP-62) was > 100 µM (inactive). For the same compound, the GI50 (SNB-75) was 55.1 µM (inactive), the GI50 (MOLT-4) was > 100 µM (inactive) and the GI50 (HT-29) was > 100 µM (inactive). For the same compound, the GI50 (HOP-92) was 55.3 µM (inactive), the GI50 (NCI-H522) was > 100 µM (inactive) and the GI50 (OVCAR-3) was > 100 µM (inactive). For the same compound, the GI50 (KM-20L2) was > 100 µM (inactive), the GI50 (M14) was > 100 µM (inactive) and the GI50 (RPMI-8226) was > 100 µM (inactive). For the same compound, the GI50 (UO-31) was > 100 µM (inactive), the GI50 (SK-MEL-28) was > 100 µM (inactive) and the GI50 (LXFL 529) was > 100 µM (inactive). The GI50 (DLD-1) was > 100 µM (inactive), the GI50 (A549) was > 100 µM (inactive) and the GI50 (SK-MEL-5) was > 100 µM (inactive). For the same compound, the GI50 (NCI-H460) was > 100 µM (inactive), the GI50 (A498) was > 100 µM (inactive) and the GI50 (ACHN) was > 100 µM (inactive). For the same compound, the GI50 (UACC-257) was > 100 µM (inactive), the GI50 (UACC-62) was > 100 µM (inactive) and the GI50 (OVCAR-5) was > 100 µM (inactive). For the same compound, the GI50 (OVCAR-8) was > 100 µM (inactive), the GI50 (SN12C) was > 100 µM (inactive) and the GI50 (SR) was > 100 µM (inactive). For the same compound, the GI50 (Malme-3M) was > 100 µM (inactive), the GI50 (SNB-19) was > 100 µM (inactive) and the GI50 (LOX IMVI) was > 100 µM (inactive). For the same compound, the GI50 (HOP-18) was > 100 µM (inactive), the GI50 (KM12) was > 100 µM (inactive) and the GI50 (HCT-116) was > 100 µM (inactive). For the same compound, the GI50 (NCI-H23) was > 100 µM (inactive), the GI50 (786-0) was > 100 µM (inactive) and the GI50 (K562) was > 100 µM (inactive). For the same compound, the GI50 (SF-295) was > 100 µM (inactive), the GI50 (RXF 393) was > 100 µM (inactive) and the GI50 (SF-268) was > 100 µM (inactive). The GI50 (COLO 205) was > 100 µM (inactive), the GI50 (HCC 2998) was > 100 µM (inactive) and the GI50 (NCI-H226) was > 100 µM (inactive). The GI50 (TK-10) was > 100 µM (inactive), the GI50 (HL-60) was > 100 µM (inactive) and the GI50 (CAKI-1) was > 100 µM (inactive). The GI50 (CCRF-CEM) was > 100 µM (inactive).
